Experimental data: patent US5658885A, “Amidino and guanidino substituted boronic acid inhibitors of trypsin-like enzymes” (The DuPont Merck Pharmaceutical Company, priority 1994, dated 1997)
Structures can show the parent of a compound that is named as a salt.

Target: T1, human factor Xa (Homo sapiens, UniProt P00742)
T1 construct: 0.2-0.5 nM human thrombin or human factor Xa; purchased Enzyme Research Laboratories, South Bend, Ind
Assay: Inhibition of Factor Xa hydrolysis of chromogenic substrate S2222 (Ki)
Assay type: biochemical
Settings: S2222, pH 7.5
Procedure: (§1) The effectiveness of compounds of the present invention as inhibitors of blood coagulation proteases was determined using purified human proteases and synthetic substrates following procedures similar to those described in Kettner et al. (1990).
(§2) For these assays, the rate of enzymatic (thrombin, Factor Xa, and Factor VIIa) hydrolysis of chromogenic substrates (S2238 (H-D-Phe-Pip-Arg-pNA), S2222, and S2288, respectively; Kabi Pharmacia, Franklin, Ohio) was measured both in the absence and presence of compounds of the present invention. […] A decrease in the rate of absorbance change at 405 nm in the presence of inhibitor is indicative of enzyme inhibition. The results of this assay are expressed as inhibitory constant, Ki.
(§3) Thrombin and Xa determinations were made in 0.10M sodium phosphate buffer, pH 7.5, containing 0.20M NaCl, and 0.5% PEG 8000. VIIa determinations were made in 0.05M tris buffer, pH 7.6, containing 0.10M NaCl, 4 mM CaCl2, and 0.1% bovine serum albumin.
(§4) Reactions were allowed to go for 30 minutes and the velocities (rate of absorbance change vs time) were measured in the time frame of 25-30 minutes. The following relationship was used to calculate Ki values. [formula] where: vo is the velocity of the control in the absence of inhibitor;
(§5) vs is the velocity in the presence of inhibitor;
(§6) I is the concentration of inhibitor;
(§7) Ki is the dissociation constant of the enzyme: inhibitor complex;
(§8) S is the concentration of substrate;
(§9) Km is the Michaelis constant.

T1 sequence (P00742 235-488 limits assumed): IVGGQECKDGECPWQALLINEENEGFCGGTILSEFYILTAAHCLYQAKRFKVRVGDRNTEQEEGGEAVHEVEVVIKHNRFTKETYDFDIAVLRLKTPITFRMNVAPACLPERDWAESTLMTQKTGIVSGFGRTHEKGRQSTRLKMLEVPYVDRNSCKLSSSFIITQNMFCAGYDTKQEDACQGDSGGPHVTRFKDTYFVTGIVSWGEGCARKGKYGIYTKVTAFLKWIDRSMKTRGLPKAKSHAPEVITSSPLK
T1 sequence (P00742 41-179 limits assumed): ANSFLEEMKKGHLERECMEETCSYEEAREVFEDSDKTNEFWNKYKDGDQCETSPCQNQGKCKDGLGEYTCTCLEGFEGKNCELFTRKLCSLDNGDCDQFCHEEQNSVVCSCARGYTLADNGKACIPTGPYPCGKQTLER

Compound	Ki [nM]
CC1(C)C2CC3OB(C(Cc4cccc(C#N)c4)NC(=O)C4CCCN4C(=O)C(N)Cc4cccnc4)OC3(C)C1C2 (centres unmarked) [Example 30, H--(D)3-Pyridylalanine-Pro--boroPhe(m-CN)--C10 H16.HCl]	< 500

Target: T2, human thrombin (Homo sapiens, UniProt P00734)
T2 construct: 0.2-0.5 nM human thrombin or human factor Xa; purchased Enzyme Research Laboratories, South Bend, Ind
Assay: Inhibition of thrombin hydrolysis of chromogenic substrate S2238 (Ki)
Assay type: biochemical
Settings: S2238, pH 7.5
Procedure: as §1, §2, §3, §4, §5, §6, §7, §8, §9

Compound	Ki [nM]
CC1(C)C2CC3OB(C(Cc4cccc(C#N)c4)NC(=O)C4CCCN4C(=O)C(N)Cc4cccnc4)OC3(C)C1C2 (centres unmarked) [Example 30, H--(D)3-Pyridylalanine-Pro--boroPhe(m-CN)--C10 H16.HCl]	< 500
CC(C)(C)OC(=O)N[C@H](Cc1ccccc1)C(=O)N1CCC[C@H]1C(=O)NC(CC1CCC(N)CC1)B1OC2CC3CC(C3(C)C)C2(C)O1 (some centres unmarked) [Example 125, Boc--(D)Phe--Pro--NH--CH[CH2 (4-amino-cyclohexyl)]BO2 --C10 H16]	< 500
CC1(C)C2CC3OB(C(Cc4cccc(C#N)c4)NC(=O)[C@@H]4CCCN4C(=O)/C=C/c4cccnc4)OC3(C)C1C2 (stereo in doubt) [Example 42, trans-3-(3-pyridyl)acryl-Pro--boroPhe(m-CN)--C10 H16]	< 500
CC(=O)N[C@H](Cc1ccccc1)C(=O)N1CCC[C@H]1C(=O)N[C@@H](Cc1cccc(Br)c1)B1O[C@@H]2C[C@@H]3C[C@@H](C3(C)C)[C@]2(C)O1 [Example 14, Ac--(D)Phe--Pro--boroPhe(m-Br)--C10 H16]	< 500
COC(=O)c1cccc(CC(NC(=O)C2CCCN2C(=O)C(N)Cc2ccccc2)B2OC3CC4CC(C4(C)C)C3(C)O2)c1 (centres unmarked) [Example 135, H--(D)Phe--Pro--boroPhe(mCOOMe)--C10 H16.HCl]	< 500
CNC(=NC#N)NCCCC(NC(=O)C1CCCN1C(=O)C(Cc1ccccc1)NC(=O)OC(C)(C)C)B1OC2CC3CC(C3(C)C)C2(C)O1 (centres unmarked) [Example 105, Boc--(D)Phe--Pro--boroOrn--[C(NCN)NHCH3]--C10 H16]	< 500
CC(C)(C)OC(=O)NC(Cc1ccccc1)C(=O)N1CCCC1C(=O)NC(CCCNC(N)=O)B1OC2CC3CC(C3(C)C)C2(C)O1 (centres unmarked) [Example 108, Boc--(D)Phe--Pro--boroOrn(CONH2)--C10 H16]	< 500
CC(=O)NC(Cc1ccccc1)C(=O)N1CCCC1C(=O)NC(Cc1ccc(C#N)cc1)B1OC2CC3CC(C3(C)C)C2(C)O1 (centres unmarked) [Example 16, Ac--(D)Phe--Pro--boroPhe(p-CN)--C10 H16]	< 500
HOOCCH2 --(D)Phe--Pro--boroOrn[C(NCN)NHCH3 ]--C10 H16.HCl [Example 106]	< 500
Ac--Pro--boroPhe(m-CN)--C10 H16 [Example 35]	< 50000
COCCCC(NC(=O)C1CCCN1C(=O)C(Cc1ccccc1)NC(=O)OC(C)(C)C)B1OC2CC3CC(C3(C)C)C2(C)O1 (centres unmarked) [Example 138, Boc--(D)--Phe--Pro--boroGly[(CH2)3 --OCH3]--C10 H16]	< 500
CC(=O)Nc1ccc(S(=O)(=O)NC(Cc2ccccc2)C(=O)N2CCCC2C(=O)NC(CCCNS(C)(=O)=O)B2OC3CC4CC(C4(C)C)C3(C)O2)cc1 (centres unmarked) [Example 115, 4-(N-Acetyl)Anilinesulfonyl-(D)Phe--Pro--boroOrn(N-Methanesulfonyl)-C10 H16]	< 500
Boc--(D)Phe--Aze--boroOrn(CH=NH)--OH.HCl [Example 74]	< 500
CC1(C)C2CC3OB(C(Cc4cccc(C#N)c4)NC(=O)C4CCCN4C(=O)CSc4ccncc4)OC3(C)C1C2 (centres unmarked) [Example 43, (4-Pyridylthio)acetyl-Pro--boroPhe(m-CN)--C10 H16]	< 500
H--(D)Phe--Pro--boroOrn(CH=NH)]--C10 H16.0.5 HCl.0.5 BSA [Example 8]	< 500
CC1(C)C2CC3OB(C(CCCNS(C)(=O)=O)NC(=O)C4CCCN4C(=O)[C@@H](Cc4ccccc4)NCC(=O)O)OC3(C)C1C2 (some centres unmarked) [Example 119, HOOCCH2 --(D)Phe--Pro--boroOrn(N-Methanesulfonyl)-C10 H16.HCl]	< 500
CC(=O)NC(Cc1ccccc1)C(=O)N1CCCC1C(=O)NC(CCCNC(N)=NC#N)B1OC2CC3CC(C3(C)C)C2(C)O1 (centres unmarked) [Example 15, Ac--(D)Phe--Pro--boroArg(CN)--C10 H16.HCl]	< 500
CC(C)(C)OC(=O)N[C@H](Cc1ccccc1)C(=O)N1CCCC1C(=O)NC(CCCNS(C)(=O)=O)B1OC2CC3CC(C3(C)C)C2(C)O1 (some centres unmarked) [Example 113, Boc--(D)Phe--Pro--boroOrn(N-Methanesulfonyl)--C10 H16]	< 500
CC(=O)NC(Cc1ccccc1)C(=O)N1CCCC1C(=O)NC(Cc1ccc(CN)cc1)B1OC2CC3CC(C3(C)C)C2(C)O1 (centres unmarked) [Example 21, Ac--(D)Phe--Pro--boroPhe(p-CH2 NH2)--C10 H16.BSA]	< 500
CC(C)(C)OC(=O)N[C@H](Cc1ccccc1)C(=O)N1CCCC1C(=O)NC(CC1CCC(O)CC1)B1OC2CC3CC(C3(C)C)C2(C)O1 (some centres unmarked) [Example 127, Boc--(D)Phe--Pro--NH--CH[CH2 (4-hydroxy-cyclohexyl)]BO2 --C10 H16]	< 500
PhSO2 --(D)Phe--Pro--boroArg(CH3)--OH.HCl [Example 58]	< 500
COCCCC(NC(=O)C1CCCN1C(=O)C(N)Cc1ccccc1)B1OC2CC3CC(C3(C)C)C2(C)O1 (centres unmarked) [Example 139, H--(D)--Phe--Pro--boroGly[(CH2)3 --OCH3]--C10 H16]	< 500

Compound	Ki [nM]
PhCH2 SO2 --(D)Phe--Pro--boroArg(CH3)--OH.HCl [Example 61]	< 500
CC(=O)NC(Cc1ccccc1)C(=O)N1CCCC1C(=O)NC(CCCCC(=N)N)B1OC2CC3CC(C3(C)C)C2(C)O1 (centres unmarked) [Example 2, Ac--(D)Phe--Pro--NH--CH[(CH2)4 --C(NH)NH2]BO2 C10 H16.BSA]	< 500
CC1(C)C2CC3OB(C(CCCON)NC(=O)C4CCCN4C(=O)C(Cc4ccccc4)NS(=O)(=O)Cc4ccccc4)OC3(C)C1C2 (centres unmarked) [Example 103, PhCH2 SO2 --(D)Phe--Pro--boroGly[(CH2)3 --ONH2]--C10 H16.HCl]	< 500
CN(C)[C@H](Cc1ccccc1)C(=O)N1CCCC1C(=O)NC(CCCNS(C)(=O)=O)B1OC2CC3CC(C3(C)C)C2(C)O1 (some centres unmarked) [Example 117, N,N-dimethyl-(D)Phe--Pro--boroOrn-(N-Methanesulfonyl)-C10 H16.HCl]	< 500
CC(=O)NC(Cc1ccccc1)C(=O)N(C)CC(=O)NC(CCCNC=N)B(O)O (centres unmarked) [Example 67, Ac--(D)Phe--Sar--boroOrn(CH=NH)--OH.HCl]	< 500
CN(CC(=O)NC(CCCNC=N)B(O)O)C(=O)C(Cc1ccccc1)NC(=O)OC(C)(C)C (centres unmarked) [Example 70, Boc--(D)Phe--Sar--boroOrn(CH=NH)--OH.HCl]	< 500
CC1(C)C2CC3OB(C(Cc4cccc(C#N)c4)NC(=O)C4CCCN4C(=O)CCc4cccnc4)OC3(C)C1C2 (centres unmarked) [Example 45, 3-Pyridylpropionyl-Pro--boroPhe(m-CN)--C10 H16]	< 500
COCCCC(NC(=O)[C@@H]1CCCN1C(=O)[C@@H](Cc1ccccc1)NC(C)C)B1OC2CC3CC(C3(C)C)C2(C)O1 (some centres unmarked) [Example 143, (CH3)2 CH--(D)--Phe--Pro--boroGly[(CH2)3 --OCH3]--C10 H16]	< 500
CC1(C)C2CC3OB(C(CCCNS(C)(=O)=O)NC(=O)C4CCCN4C(=O)C(Cc4ccccc4)NS(C)(=O)=O)OC3(C)C1C2 (centres unmarked) [Example 116, Methanesulfonyl-(D)Phe--Pro--boroOrn(N-Methanesulfonyl)-C10 H16]	< 500
CN(CC(=O)NC(CCCNC=N)B(O)O)C(=O)C(Cc1ccccc1)NS(=O)(=O)CCc1ccccc1 (centres unmarked) [Example 69, Phenethyl-SO2 --(D)Phe--Sar--boroOrn(CH=NH)--OH.HCl]	< 500
Hydrocinnamoyl-Pro--boroIrg(CH2 CH=CH2)--OH.HBr [Example 49]	> 500000
Boc--(D)Phe--Pro--boroOrn[C(NCN)SCH3 ]--C10 H16 [Example 107]	< 500
COCCCC(NC(=O)[C@@H]1CCCN1C(=O)[C@@H](Cc1ccccc1)NC(=O)[C@@H]1CCCN1)B1OC2CC3CC(C3(C)C)C2(C)O1 (some centres unmarked) [Example 145, H--Pro--(D)--Phe--Pro--boroGly[(CH2)3 --OCH3]--C10 H16]	< 500
CC1(C)C2CC3OB(C(Cc4cccc(C#N)c4)NC(=O)C4CCN4C(=O)C(N)Cc4ccccc4)OC3(C)C1C2 (centres unmarked) [Example 47, H--(D)Phe--Aze--boroPhe(m-CN)--C10 H16.HCl]	< 500
HOOCCH2 --(D)Phe--Pro--boroOrn(CONH2)--C10 H16.HCl [Example 111]	< 500
N#Cc1cccc(CC(NC(=O)C2CCCN2C(=O)C(Cc2ccccc2)NC(=O)CCC(=O)O)B(O)O)c1 (centres unmarked) [Example 44, Succinyl-(D)Phe--Pro--boroPhe(m-CN)--OH]	< 500
H--(D)Phe--Pro--boroOrn(CONH2)--C10 H16.HCl [Example 109]	< 500
CN[C@H](Cc1ccccc1)C(=O)N1CCCC1C(=O)NC(CCCOC)B1OC2CC3CC(C3(C)C)C2(C)O1 (some centres unmarked) [Example 142, N-methyl-(D)--Phe--Pro--boroGly[(CH2)3 --OCH3]--C10 H16]	< 500
CH3 (CH2)3 SO2 --(D)Phe--Pro--boroArg(CH3)--OH.HCl [Example 65]	< 500
CC(=O)N[C@H](Cc1ccccc1)C(=O)N1CCC[C@H]1C(=O)NC(CCCCC#N)B1OC2CC3CC(C3(C)C)C2(C)O1 (some centres unmarked) [Example 1, Ac--(D)Phe--Pro--NH--CH[(CH2)4 CN]BO2 C10 H16]	< 50000
PhCH2 SO2 --(D)Phe--Pro--boroOrn(CH=NH)--OH.HCl [Example 62]	< 500
